Experimental data reported in patent US20070142326A1, “Treatment of a condition in a mammal with administration of aminosugar and uses thereof” (priority 2004, published 2007).
Entries after “also recorded” stand apart in the source; their conditions may differ.

Columns and labels:
chondrocytes = conditions: low millimolar concentrations; cited from earlier work
[1] = tested on: synovium of rabbits with ACLT (experimental OA); assay: Histological grading of synovium, ACLT rabbits, intra-articular injections; format: in vivo, New Zealand White rabbits
Method: (§1) Anterior cruciate ligament transection (ACLT). Unilateral or bilateral ACLT was performed as indicated for each set of experiments. ACLT was performed using a medial arthrotomy technique (Yoshioka et al. Osteoarthritis Cartilage 1996; 4:87-98). After dislocating the patella laterally, the ACL was transected with a sharp blade. Complete transection was confirmed by a manual anterior drawer test The knee joints were irrigated with sterile saline and closed in layers with sutures. All animals were maintained individually with ad libitum activity. The animals were sacrificed 8 weeks after the surgery.
(§2) Intra-articular injections of GlcNAc. Intra-articular injections of GlcNAc started one week post-operatively for a period of seven weeks. Rabbits were injected twice per week with GlcNAc in a volume of 0.3 ml per knee joint The single dose of GlcNAc per injection was 80 mg. Control animals were injected twice per week intra-articularly with normal saline (0.3 ml per joint). The third group of rabbits received intra-articular injections of hyaluronan (0.3 ml per joint) twice per week for seven weeks starting one week after the ACL transection. Synovial fluid analysis was performed in 3 animals that developed gross synovial effusions (2 animals in the control group and 1 animal in the hyaluronan group). In all three animals synovial fluid was culture negative.
(§3) Histological grading of the knee joints. Distal femur and proximal tibia from the rabbit knee joints were fixed in 10% buffered formalin, decalcified in TBD-2 decalcifier (ThermoShandon, Pittsburg, Calif.) and embedded in paraffin blocks. Sagittal sections of lateral and medial femoral condyles, and coronal sections of tibial plateaus were used for further histological analysis.
Histological assessment of synovium was based on the presence of synovial proliferation and synovial neoangiogenesis, and it was performed separately for the synovium attached to the tibial plateaus, lateral, and medial femoral condyles.

[2] = tested on: knee joints of rabbits with ACL transection; assay: Gross morphological assessment of joint swelling and synovial effusion, ACLT rabbits, intra-articular injections; format: in vivo, New Zealand White rabbits; conditions: FIG. 4
Method: as §1, §2
(§4) Gross morphological assessment of the knee joints. Gross morphological assessment of the knee joints included assessment of joint swelling, synovial effusion, macroscopic articular cartilage morphology of tibial plateaus and femoral condyles, and assessment of the menisci.
The following grading system was used to assess joint swelling: Grade 0-normal; Grade 1 (mild swelling)—mild inflammation and/or proliferation of the joint capsule; Grade 2 (moderate swelling)—thickening of joint capsule and/or inflammation of the synovium; Grade 3 (severe swelling)—abundant inflammation of the synovium, swelling of the menisci or ligaments (anterior cruciate ligament or posterior cruciate ligament).

[3] = tested on: synovial tissue of rabbits with ACL transection; assay: DNA content in synovial tissue, ACLT rabbits, intra-articular injections; format: in vivo, New Zealand White rabbits; conditions: FIG. 5
Method: as §1
Intra-articular injections of GlcNAc. Intra-articular injections of GlcNAc started one week post-operatively for a period of seven weeks. Rabbits were injected twice per week with GlcNAc in a volume of 0.3 ml per knee joint The single dose of GlcNAc per injection was 80 mg. Control animals were injected twice per week intra-articularly with normal saline (0.3 ml per joint). […]
Measurement of DNA content in synovial tissue. Synovial tissue cellularity was assessed by quantitating the tissue concentration of DNA (Amiel et. al. J Orthop Res 1986; 4:162-172). […] The aqueous phase containing the DNA was harvested, and the absorbance was measured at […]. […] Results were expressed as mg DNA per mg of dry tissue.

[4] = tested on: rabbits with bilateral anterior cruciate ligament transection (ACLT); assay: Intra-muscular GlcNAc in rabbits with bilateral ACLT, gross morphological grading; format: in vivo, New Zealand White rabbits
Method: as §1
Intra-muscular injections of GlcNAc. Intra-muscular injections of GlcNAc were performed three times per week starting one week postoperatively for a period of seven weeks. The dose of GlcNAc was 200 mg/kg per injection. The control group of received the same number of intra-muscular injections of normal saline.
as §4
Gross morphological assessment of the articular cartilage. […] Subsequently, all joints were photographed and digital images were analyzed.

[5] = tested on: articular cartilage of rabbits with ACLT (experimental OA); assay: Histological grading of articular cartilage, ACLT rabbits, intra-articular injections; format: in vivo, New Zealand White rabbits; conditions: N = 6; for Sulfated glycosaminoglycan loss, histological grade: grade 1-3 by loss of Safranin O staining, intra-articular 80 mg twice per week for 7 weeks; for Impairment of cartilage surface integrity, histological grade: grade 1 intact to 3 full thickness defect, intra-articular
Method: as §1, §2, §3
The assessment of sulfated glycosaminoglycan (SGAG) content was performed after staining of the tissue sections with Safranin O/Fast Green.
The following grading system was used for assessing SGAG content: Grade 1—Less than 25% loss of Safranin O staining, Grade 2—25-50% loss of Safranin O staining; Grade 3—More than 50% loss of Safranin O staining;
The following grading system was used for assessing cartilage integrity: Grade 1—Intact cartilage surface; Grade 2—Presence of fibrillations; Grade 3—Full thickness cartilage defect. In addition, all tissue samples were analyzed for the presence of chondrocyte proliferation or cloning.

[6] = tested on: human articular chondrocytes; conditions: cited from earlier work
[7] = tested on: femoral condyles and tibial plateaus of rabbits with ACL transection; assay: Gross morphological assessment and digital imaging of articular cartilage, ACLT rabbits, intra-articular injections; format: in vivo, New Zealand White rabbits; conditions: for Gross morphological analysis of the femoral condyles: FIG. 2
Method: as §1, §2
Gross morphological assessment of the articular cartilage. The distal femur and proximal tibia were harvested keeping a 3.5 cm to 4 cm shaft of the bones. The articular cartilage surface of each specimen was covered with a solution consisting of India ink (Eberhard Faber, Lewisburg, Tenn.) in PBS (1:5 ratio). Excess ink solution was removed by gentle blotting with a tissue that was pre-moistened with PBS. Subsequently, all joints were photographed and digital images were analyzed.
Digital imaging. Articular surfaces of femoral condyles and tibial plateaus were gently blotted dry and cleaned of loose tissue. Each femoral shaft was clamped to an optical bench. An image (resolution: 60 pixels per mm; onscreen magnification: 20×) of the femoral condyles was obtained using a Canon EOS D30 digital camera with a 100 mm macro lens at a distance of approximately 12 cm. A millimeter scale was included in the photograph to accurately scale the image. The scaled image was then projected onto a 3D model of the femoral condyles. The 3D surface area of the lesion was measured by interactively plotting the margins of the lesion. A digital image of articular surface of the tibia was obtained as described above.

[8] = tested on: subchondral bone marrow of rabbits with ACLT (experimental OA); assay: Histological grading of subchondral bone marrow, ACLT rabbits, intra-articular injections; format: in vivo, New Zealand White rabbits
Method: as §1, §2, §3
Microscopic assessment of bone marrow was based on the presence of subchondral bone marrow hypercellularity and increased vascularization as shown in Table 3.

[9] = Continuous delivery of GlcNAc to the joint (sustained release and alzet pump methods); conditions: after a single intra-articular administration
Method: Release of GlcNAc from formulations incubated in phosphate buffered saline. An in vitro release study was performed in phosphate buffered saline to evaluated release kinetics under physiological conditions. Each sustained release formulation (100 μl) was placed in 1.0 mL of phosphate buffered saline and then incubated at 37° C. At different time points, the formulation matrix was separated by removing the phosphate buffered saline bathing solution with a pipet. The resulting solutions were analyzed by UV detection after GlcNAc derivatives were formed by methods previously described (Reissig et. al. J. Biol. Chem. 1955 217: 959-966). The formulation matrix was then re-suspended in 1.0 mL phosphate buffered saline and incubated under the same conditions as described above.
Alzet Pump Administration of GlcNAc. New Zealand White rabbits, 3.0-3.5 kg, were used in this experiment. They were randomly allocated into five groups, each group having 8 rabbits. Group A was treated with saline (negative control group); Group B was treated with 1.5 M GlcNAc group; Group C was treated with 0.5 M GlcNAc group; Group D was treated with 0.15 M GlcNAc group; Group E was treated with 0.05 M GlcNAc group. All compounds were continuously delivered to the joints by Alzet mini pumps. The delivery rate for this pump was 2.5 μl/hour. […]

Compound: N[C@H]1C(O)O[C@H](CO)[C@@H](O)[C@@H]1O (stereo partly drawn) [GlcN, glucosamine]
- Cytotoxicity for chondrocytes (chondrocytes): cytotoxic for chondrocytes at low millimolar concentrations

Compound: CC(=O)N[C@H]1C(O)O[C@H](CO)[C@@H](O)[C@@H]1O (stereo partly drawn) [GlcNAc, N-Acetylglucosamine]
- Synovial neoangiogenesis, animals with finding / animals ([1]; Lateral femoral condyle, N = 6, saline 4/7, P ≦ 0.16): 1/6
- Synovial thickening/proliferation, animals with finding / animals ([1]; Lateral femoral condyle, N = 6, saline 7/7, P ≦ 0.006): 2/6
- Synovial neoangiogenesis, animals with finding / animals ([1]; Medial femoral condyle, N = 6, saline 5/7, P ≦ 0.05): 1/6
- Synovial thickening/proliferation, animals with finding / animals ([1]; Medial femoral condyle, N = 6, saline 7/7, P ≦ 0.006): 2/6
- Synovial neoangiogenesis, animals with finding / animals ([1]; Tibial plateau, N = 6, saline 4/7, P ≦ 0.16): 1/6
- Synovial thickening/proliferation, animals with finding / animals ([1]; Tibial plateau, N = 6, saline 7/7, P ≦ 0.0002): 1/6
- Synovial effusion ([2]; intra-articular GlcNAc versus hyaluronan group): no significant difference
- Joint swelling ([2]; intra-articular, versus saline): does not significantly affect
- Synovial effusions ([2]; intra-articular, versus saline): does not significantly affect
- DNA content assessment of synovial tissue ([3]; intra-articular GlcNAc versus hyaluronan group, p<0.05): significant reduction in synovial hyperplasia and cellularity
- DNA content in synovial tissue ([3]; intra-articular, versus saline): does not significantly affect
- Degree of cartilage damage, gross morphological analysis of tibial plateaus and femoral condyles ([4]; intra-muscular 200 mg/kg three times per week for seven weeks, 6 rabbits versus 6 saline controls, FIGS. 1a and 1b): did not reveal a statistically significant difference
- Synovitis ([4]; intra-muscular GlcNAc): trend towards reduction of synovitis; also recorded: significant reduction of synovitis
- Sulfated glycosaminoglycan loss, histological grade ([5]; Lateral femoral condyle, saline 2.43 ± 0.53, P ≦ 0.03): 1.50 ± 0.83
- Impairment of cartilage surface integrity, histological grade ([5]; Lateral femoral condyle, saline 2.00 ± 1.00, P ≦ 0.17): 1.33 ± 0.51
- Sulfated glycosaminoglycan loss, histological grade ([5]; Medial femoral condyle, saline 1.57 ± 0.53, P ≦ 0.4): 1.66 ± .33
- Impairment of cartilage surface integrity, histological grade ([5]; Medial femoral condyle, saline 1.66 ± 0.41, P ≦ 0.91): 1.66 ± 0.81
- Sulfated glycosaminoglycan loss, histological grade ([5]; Tibial plateau, saline 1.71 ± 0.76, P ≦ 0.14): 1.16 ± 0.40
- Impairment of cartilage surface integrity, histological grade ([5]; Tibial plateau, saline 1.71 ± 0.49, P ≦ 0.05): 1.16 ± 0.41
- Concentration that does not induce chondrocyte cell death [6]: higher than 50 mM
- Surface areas of the cartilage lesions (digital image analysis) ([7]; femoral condyles and tibial plateaus, intra-articular GlcNAc versus hyaluronan group, FIGS. 6a and 6b): greatly reduced
- Gross morphological analysis of the femoral condyles ([7]; intra-articular GlcNAc versus intra-articular hyaluronan group (n=7)): no significant difference
- Chondroprotective activity, gross morphology of tibial plateaus ([7]; intra-articular GlcNAc versus intra-articular hyaluronan, p<0.01, FIG. 3): significantly greater
- Gross morphological analysis of the femoral condyles ([7]; intra-articular, two times per week for seven weeks, n=7, versus saline control): trend towards improved cartilage condition
- Rabbits that developed a cartilage lesion on the tibial plateaus ([7]; intra-articular, two times per week for seven weeks, control group 6 of 7, p<0.003, FIG. 3): 1 of 7
- Subchondral bone marrow hypercellularity and increased vascularization, animals with finding / animals ([8]; Lateral femoral condyle, N = 6, saline 3/7, P ≦ 0.07): 0/6
- Subchondral bone marrow hypercellularity and increased vascularization, animals with finding / animals ([8]; Medial femoral condyle, N = 6, saline 3/7, P ≦ 0.07): 0/6
- Subchondral bone marrow hypercellularity and increased vascularization, animals with finding / animals ([8]; Tibial plateau, N = 6, saline 3/7, P ≦ 0.35): 1/6
- Duration of continuous delivery to the joint [9]: more than three weeks
